We go through 11 molecules from article PMC3923716 (PLoS Neglected Tropical Diseases, 2014).

pEC50, pIC50: −log10 of the molar value. Read-outs that look alike come from different tables or passages of the source. A value given as a limit tells only on which side of the number the result lay.

The target in experiment [1] is B. malayi Hsp90 (Brugia malayi, UniProt A0A0H5S7Y7). Put plainly: Competition FP assay (displacement of Cy3B-GA), B. malayi lysate. Format: binding. The protocol:
(§1) The FP assay was set up essentially as described previously, [25]. […] The equilibrium binding of Cy3B-GA and recombinant human Hsp90α (Enzo Life Sciences, Farmingdale, NY USA) or parasite lysate was determined by creating a two-fold dilution series of protein/extract for an eleven-point curve with the first column containing no protein. […] All FP values are expressed in millipolarization (mP) units with the mP value of free Cy3B-GA probe set to 50. Equilibrium binding constants were determined by nonlinear regression using a one-site binding model (GraphPad Prism software).
(§2) The relative binding affinities of inhibitors to human or parasite-derived Hsp90 was determined using competitive FP binding assays. […] For parasite-derived Hsp90, an amount of parasite lysate resulting in 50% of maximal Cy3B-GA binding was used. […] Stock solutions of each compound were prepared in DMSO at a concentration of 10 mM and 3-fold serial dilutions prepared in DMSO for eleven point curves. […] The final concentration of Cy3B-GA was 6 nM and the final DMSO concentration in all wells was 0.5%. Free Cy3B-GA (mP set to 50) and buffer only (background) wells were included as controls on each plate. Plates were incubated at 8°C with gentle shaking for 20 h.

In experiment [2] the target is T1, B. pahangi Hsp90 (Brugia pahangi, UniProt O61998).
T1 construct: Adult worms of B. pahangi were obtained from infected jirds; from tissue; host or cells: whole adult B. pahangi worms, ground and lysed in HFB buffer
As to the kind of experiment: Competition FP assay (displacement of Cy3B-GA), B. pahangi lysate. The experiment is classed as binding. The protocol:
Adult worms of B. pahangi were obtained from infected jirds after 3–4 months, exactly as described previously and were frozen in liquid nitrogen, ground in a pestle and mortar to a fine powder and re-suspended in an appropriate volume of HFB assay buffer (20 mM HEPES, pH 7.3, 50 mM KCl, 5 mM MgCl2, 20 mM Na2MoO4, 1% NP40). Protein concentrations were estimated using the BioRad protein assay. At this point lysates were freeze-dried for shipping to the USA.
as §1, §2

In experiment [3] the test system is B. pahangi Mf (microfilariae). Put plainly: Mf viability in vitro. Format: cell-based, Brugia pahangi. Particulars: for condition of Mf: 250 nM, day 7; for % death by day 7: Mf; for effect of lower concentrations on Mf: concentrations below the killing concentration. The protocol: As adult Brugia worms are limited in numbers, initial experiments assessed the effect of each drug on Mf viability. Mf were purified from infected animals essentially as described previously. In brief, following lavage of the peritoneal cavity of an infected animal with Hanks Balanced Salt Solution (HBSS) pre-warmed to 37°C, Mf were collected by centrifugation and then purified from host cells by centrifugation through lymphoprep (Sigma). This procedure was repeated twice. Mf were collected from the pellet, washed twice in HBSS and once in worm culture medium (WCM) which comprised RPMI 1640, (Invitrogen Cat No: 52400), containing 5% heat inactivated fetal calf serum, 1% glucose, 100 units/ml penicillin and 100 µg/ml streptomycin (all Invitrogen). Mf were then dispensed into the wells of a 24-well plate to give approximately 200 Mf in 2.0 ml, using a single well for each drug concentration. All procedures were carried out using aseptic techniques. The five novel compounds, plus GA and medium alone controls, were tested three times against Mf over the full range of concentrations.

Experiment [4] has as its system adult female B. pahangi. Put plainly: Adult female worm assay in vitro (Mf output and adult viability), continuous exposure. The experiment is classed as cell-based, Brugia pahangi. Particulars: initial screen 2.0 µM to 100 nM, adult female worms. The protocol: For adult worm assays, adult female B. pahangi, 3–4 months old, were incubated individually in 2.0 ml of WCM overnight in 24-well plates and pre-screened for Mf production. […] For the drug experiments, six female worms of B. pahangi for each concentration of drug were cultured individually in 24-well plates in 2.0 ml of WCM containing drug, or carrier alone (DMSO) at a concentration equal to that in the highest concentration of drug. In some experiments, GA was used as a positive control. Initially, all five compounds were tested over selected concentrations starting at 2 µM to 100 nM (see Results for details). For Hsp90 inhibitors, Mf output by individual female worms is a sensitive indicator of adult worm viability and, in most experiments, was assessed at 72 h. In addition, adult worms were examined microscopically on a daily basis for 7–10 days to determine whether lower concentrations of drugs had any effects over a longer period of incubation. Results are expressed as mean Mf output ± SD over a 72 h period. Statistical significance between groups was calculated using the Mann Whitney test with P values<0.05 being considered significant.

In experiment [5] the target is T2, recombinant human Hsp90α (Homo sapiens, UniProt P07900).
T2 construct: purchased Enzo Life Sciences
Put plainly: Competition FP assay (displacement of Cy3B-GA), human Hsp90α. Format: binding. The protocol: as §1
The relative binding affinities of inhibitors to human or parasite-derived Hsp90 was determined using competitive FP binding assays. […] For parasite-derived Hsp90, an amount of parasite lysate resulting in 50% of maximal Cy3B-GA binding was used. […] Stock solutions of each compound were prepared in DMSO at a concentration of 10 mM and 3-fold serial dilutions prepared in DMSO for eleven point curves. […] The final concentration of Cy3B-GA was 6 nM and the final DMSO concentration in all wells was 0.5%. […] Plates were incubated at 8°C with gentle shaking for 20 h.

In experiment [6] the test system is adult B. pahangi worms. The conditions noted are these: 48 h of drug exposure. From the text:
(§3) Plates were maintained for up to 10 days and the condition of adult parasites noted at regular intervals. In one experiment the effect of GA on Mf output by adult B. malayi worms was compared with B. pahangi. B. malayi worms were kindly provided by Prof. R. Maizels (University of Edinburgh). […] In all in vitro experiments, plates were viewed daily and the motility and condition of the parasites noted by two independent observers, of whom one was unaware of the contents of the well.

Experiment [7] has as its system adult B. malayi worms. The conditions noted are these: 48 h of drug exposure.
Source text: as §3

For experiment [8], the system named is Brugia Hsp90. Put plainly: Competition FP assay, Brugia Hsp90 (species not separated). Format: binding. The protocol:
as §1, §2

Where [9] appears, read: best fit (95% confidence intervals), read-out: B. malayi IC50.
Setting [10] is: FP assay, best fit (95% confidence intervals), read-out: B. pahangi IC50.
Where [11] appears, read: read-out: B. malayi IC50, best fit (95% confidence intervals).

As to `C=CCNC1=C2C[C@@H](C)C[C@H](OC)[C@H](O)[C@@H](C)/C=C(\C)[C@H](OC(N)=O)[C@@H](OC)/C=C\C=C(/C)C(=O)NC(=CC1=O)C2=O` [17-AAG], the pIC50 (in general, the IC50 on a negative log10 scale, so that one unit is a factor of ten) in experiment [1] (setting [9]) is 8.60; in experiment [2] (setting [10]) it was 8.10.

Turning to `CC1(C)CC(=O)c2c(C(F)(F)F)nn(-c3ccc(C(N)=O)c(N[C@H]4CC[C@H](O)CC4)c3)c2C1` [SNX-2112], the pIC50 in experiment [1] (setting [11]) is 7.70; in experiment [2] it was 7.82. Further, in experiment [3], the “condition of Mf” value is reported as “very sluggish but still alive”. Besides, the “concentration with significant effect on Mf output” value in experiment [4] came to 500 nM.

Regarding `CC(C)NCCCn1c(Sc2cc3c(cc2I)OCO3)nc2c(N)ncnc21` [PU-H71], the negative-log IC50 (pIC50) in experiment [1] (setting [9]) was 7.57; in experiment [2] (setting [10]), 7.77.

On to `CC1(C)CC(=O)c2c(C(F)(F)F)nn(-c3ccc(C(N)=O)c(N[C@H]4CCC[C@@H]4O)c3)c2C1` [SNX-9203], for which the pIC50 in experiment [1] (setting [9]) was 7.96; in experiment [2] (setting [10]), 8.00; in experiment [5] (FP assay, best fit (95% confidence intervals), read-out: HsHsp90α IC50), 8.42. Also, the “condition of Mf” value in experiment [3] is reported as “most worms were alive but were much less motile than controls”. In addition, in experiment [3] (500 nM), the “% death by day 7” value was 90%. Besides, in experiment [4], the “concentration with significant effect on Mf output” value was no more than 100 nM.

Take `CCc1cc(-c2n[nH]c(C)c2-c2ccc3c(c2)OCCO3)c(O)cc1O` [CCT018159]: the pIC50 in experiment [1] (setting [9]) was 6.48; in experiment [2] (setting [10]), 6.62.

As for `COC1=C2C[C@@H](C)C[C@H](OC)[C@H](O)[C@@H](C)/C=C(\C)[C@H](OC(N)=O)[C@@H](OC)/C=C\C=C(/C)C(=O)NC(=CC1=O)C2=O` [Geldanamycin], the “reduction in Mf output” value in experiment [6] (1.0 µM) was 78%; in experiment [6] (2.0 µM), 92%; in experiment [7] (1.0 µM) it was 74%; in experiment [7] (2.0 µM) it was 93%. In experiment [1] (setting [11]), the pIC50 is 7.92. Besides, the “% death by day 7” value in experiment [3] (31.25 nM, listed as GA) was determined as 90%.

`CCNC(=O)c1[nH]nc(-c2cc(Cl)c(O)cc2O)c1-c1ccc(OC)cc1` [VER-49009]: the figures for the negative logarithm of the IC50 (pIC50) in experiment [1] (setting [9]) and in experiment [2] (setting [10]) were 7.85 and 7.96, respectively.

Consider `CCNC(=O)c1cc2c(-c3cc(OCCN4CCCC4)c(Cl)cc3Cl)nc(N)nc2s1` [NVP-BEP800], for which the pIC50 is roughly 8.15 in experiment [8] (read-out: IC50 for binding to Brugia Hsp90), 8.06 in experiment [1] (setting [11]), 8.16 in experiment [2] and 7.89 in experiment [5]. Besides, the pEC50 (usually −log10 of the EC50, conventionally taken in molar units) in experiment [3] (Brugia pahangi, 168 h, read-out: EC50 against Mf viability) is roughly 6.60. Further, the “% death by day 7” value in experiment [3] (500 nM) is “majority of Mf”. Moreover, in experiment [3] (7 days), the “effect of lower concentrations on Mf” value is “affected Mf motility but did not kill substantial numbers of worms”. Further, the “concentration with significant effect on Mf output” value in experiment [4] was no more than 100 nM.

In the case of `COc1c(C)cnc(Cn2cnc3c(Cl)nc(N)nc32)c1C` [BIIB021], the negative logarithm of the IC50 (pIC50) is 7.85 in experiment [1] (setting [11]) and 7.80 in experiment [2]. The “concentration active on Mf” value in experiment [3] (7 days, tested 4.0 µM to 0.976 nM) is 4.0 µM. Besides, the “% death by day 7” value in experiment [3] (4.0 µM) worked out at 100%. Besides, the “effect of lower concentrations on Mf” value in experiment [3] (7 days) was “affected worm motility but did not kill the worms”. Also, in experiment [4], the “concentration with significant effect on Mf output” value was 2000 nM.

Regarding `Oc1cc(O)c(-c2noc3ccc(NCCN4CCOCC4)cc23)cc1Cl` [CAY10607], the “higher affinity for B. pahangi Hsp90 compared to B. malayi Hsp90” value in experiment [8] amounted to 10 fold. Further, the pIC50 was 7.80 in experiment [1] (setting [9]) and 8.80 in experiment [2] (setting [10]).

In the case of `CCNC(=O)c1noc(-c2cc(Cl)c(O)cc2O)c1-c1ccc(OC)cc1` [VER-50589], the negative logarithm of the IC50 (pIC50) was 8.92 in experiment [1] (setting [9]) and 9.27 in experiment [2] (setting [10]).
